Experimental data published in a compilation of properties of binary mixtures (doi:10.1021/acs.iecr.1c02970).

Assay: xn = mol fraction of the nth substance listed
Conditions: 100 kPa

CC[n+]1ccn(C)c1.CS(=O)(=O)[O-] + O
Conditions	electrical conductivity [S/m]	speed of sound [m/s]	viscosity [mPa·s]
318.15 K, x1 = 0.0181	–	1615.9	–
318.15 K, x1 = 0.056	–	1727.8	–
318.15 K, x1 = 0.0749	–	1763.5	–
318.15 K, x1 = 0.113	–	1806.2	–
318.15 K, x1 = 0.2741	–	1811.2	–
318.15 K, x1 = 0.3671	–	1791.3	–
318.15 K, x1 = 0.489	–	1766.7	–
318.15 K, x1 = 0.6064	–	1748.6	–
318.15 K, x1 = 0.7708	–	1731.9	–
318.15 K, x1 = 0.9157	–	1719.1	–
318.15 K, x2 = 0.0082	–	1717.9	–
323.15 K, x1 = 0.002	1.2	–	–
323.15 K, x1 = 0.0165	5.73	–	–
323.15 K, x1 = 0.0181	–	1616.5	–
323.15 K, x1 = 0.028	7.33	–	–
323.15 K, x1 = 0.056	–	1721.3	–
323.15 K, x1 = 0.0674	–	–	1.468
323.15 K, x1 = 0.07	8.43	–	–
323.15 K, x1 = 0.0749	–	1754.8	–
323.15 K, x1 = 0.0945	–	1779.5	–
323.15 K, x1 = 0.1089	–	–	2.428
323.15 K, x1 = 0.1122	7.28	–	–
323.15 K, x1 = 0.1848	–	–	4.37
323.15 K, x1 = 0.2741	–	1799	–
323.15 K, x1 = 0.489	–	1754.8	–
323.15 K, x1 = 0.6951	–	1727.9	–
323.15 K, x1 = 0.7708	–	1720	–
323.15 K, x1 = 0.9157	–	1707.2	–
323.15 K, x1 = 0.9357	–	–	44.06
323.15 K, x2 = 0.0082	–	1705.9	–
328.15 K, x1 = 0.0181	–	1616.2	–
328.15 K, x1 = 0.0375	–	1672.1	–
328.15 K, x1 = 0.056	–	1714.4	–
328.15 K, x1 = 0.0749	–	1745.8	–
328.15 K, x1 = 0.0945	–	1769	–
328.15 K, x1 = 0.113	–	1783.9	–
328.15 K, x1 = 0.1833	–	1800.7	–
328.15 K, x1 = 0.2741	–	1786.7	–
328.15 K, x1 = 0.489	–	1743	–
328.15 K, x1 = 0.6064	–	1725	–
328.15 K, x1 = 0.6951	–	1716.1	–
328.15 K, x1 = 0.7708	–	1707.9	–
328.15 K, x1 = 0.9157	–	1695.4	–
333.15 K, x1 = 0.002	1.38	–	–
333.15 K, x1 = 0.0165	6.66	–	–
333.15 K, x1 = 0.0177	–	–	0.642
333.15 K, x1 = 0.0181	–	1615.2	–
333.15 K, x1 = 0.028	8.53	–	–
333.15 K, x1 = 0.0357	–	–	0.848
333.15 K, x1 = 0.0375	–	1667.4	–
333.15 K, x1 = 0.0489	9.85	–	–
333.15 K, x1 = 0.0674	–	–	1.214
333.15 K, x1 = 0.07	9.96	–	–
333.15 K, x1 = 0.0749	–	1736.4	–
333.15 K, x1 = 0.0945	–	1758.3	–
333.15 K, x1 = 0.1089	–	–	1.965
333.15 K, x1 = 0.1122	8.86	–	–
333.15 K, x1 = 0.113	–	1772.4	–
333.15 K, x1 = 0.1848	–	–	3.473
333.15 K, x1 = 0.2034	6.33	–	–
333.15 K, x1 = 0.2741	–	1774.2	–
333.15 K, x1 = 0.3752	3.67	–	–
333.15 K, x1 = 0.4263	–	–	9.38
333.15 K, x1 = 0.6064	–	1713.3	–
333.15 K, x1 = 0.6951	–	1704.2	–
333.15 K, x1 = 0.7708	–	1696.1	–
333.15 K, x1 = 0.9157	–	1683.7	–
333.15 K, x1 = 0.9339	1.16	–	–
333.15 K, x1 = 0.9357	–	–	29.98
333.15 K, x2 = 0.0082	–	1682.3	–
343.15 K, x1 = 0.002	1.59	–	–
343.15 K, x1 = 0.0177	–	–	0.551
343.15 K, x1 = 0.0181	–	1610.8	–
343.15 K, x1 = 0.028	9.78	–	–
343.15 K, x1 = 0.0357	–	–	0.735
343.15 K, x1 = 0.0375	–	1656.3	–
343.15 K, x1 = 0.056	–	1690.9	–
343.15 K, x1 = 0.0674	–	–	1.026
343.15 K, x1 = 0.07	11.6	–	–
343.15 K, x1 = 0.0749	–	1716.8	–
343.15 K, x1 = 0.0945	–	1736.2	–
343.15 K, x1 = 0.1089	–	–	1.629
343.15 K, x1 = 0.1122	10.4	–	–
343.15 K, x1 = 0.113	–	1748.7	–
343.15 K, x1 = 0.1833	–	1762.7	–
343.15 K, x1 = 0.1848	–	–	2.831
343.15 K, x1 = 0.2034	7.58	–	–
343.15 K, x1 = 0.2741	–	1749.3	–
343.15 K, x1 = 0.3671	–	1730.3	–
343.15 K, x1 = 0.3752	4.5	–	–
343.15 K, x1 = 0.489	–	1707.6	–
343.15 K, x1 = 0.6951	–	1680.7	–
343.15 K, x1 = 0.9157	–	1660.7	–
343.15 K, x1 = 0.9339	1.55	–	–
343.15 K, x1 = 0.9357	–	–	21.61
343.15 K, x2 = 0.0082	–	1659	–
353.15 K, x1 = 0.002	1.81	–	–
353.15 K, x1 = 0.0177	–	–	0.475
353.15 K, x1 = 0.028	11.1	–	–
353.15 K, x1 = 0.0357	–	–	0.625
353.15 K, x1 = 0.07	13.2	–	–
353.15 K, x1 = 0.1089	–	–	1.37
353.15 K, x1 = 0.1122	12.1	–	–
353.15 K, x1 = 0.2034	8.9	–	–
353.15 K, x1 = 0.9357	–	–	16.3
